# Read-outs that look alike come from different tables or passages of the source.
# T1: M. truncatula GSII-2b (Medicago truncatula, UniProt E1ANG4)
# T1 sequence (E1ANG4 50-428): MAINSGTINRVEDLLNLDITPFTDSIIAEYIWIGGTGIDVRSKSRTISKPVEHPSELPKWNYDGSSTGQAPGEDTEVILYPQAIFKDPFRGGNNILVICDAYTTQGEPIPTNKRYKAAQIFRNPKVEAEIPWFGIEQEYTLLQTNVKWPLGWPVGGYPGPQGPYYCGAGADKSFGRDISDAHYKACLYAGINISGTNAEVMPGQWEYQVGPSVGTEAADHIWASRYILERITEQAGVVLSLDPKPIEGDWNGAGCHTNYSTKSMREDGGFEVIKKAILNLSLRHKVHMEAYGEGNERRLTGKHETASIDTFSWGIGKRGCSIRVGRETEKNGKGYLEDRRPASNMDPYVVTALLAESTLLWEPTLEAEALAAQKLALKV
# T2: M. truncatula GSII-1b (Medicago truncatula, UniProt O04999)
# T2 sequence (O04999 1-356): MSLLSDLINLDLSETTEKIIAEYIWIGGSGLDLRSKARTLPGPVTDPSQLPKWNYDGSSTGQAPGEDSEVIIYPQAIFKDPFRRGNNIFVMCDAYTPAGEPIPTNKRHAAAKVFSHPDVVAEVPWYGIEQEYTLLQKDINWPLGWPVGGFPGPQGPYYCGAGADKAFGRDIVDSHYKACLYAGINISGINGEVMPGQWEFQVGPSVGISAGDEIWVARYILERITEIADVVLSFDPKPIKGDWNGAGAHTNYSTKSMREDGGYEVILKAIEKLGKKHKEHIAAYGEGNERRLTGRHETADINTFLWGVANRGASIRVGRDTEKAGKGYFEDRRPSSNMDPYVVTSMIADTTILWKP
# T3: M. truncatula GSII-2a (Medicago truncatula, UniProt Q84UC1)
# T3 sequence (Q84UC1 50-428): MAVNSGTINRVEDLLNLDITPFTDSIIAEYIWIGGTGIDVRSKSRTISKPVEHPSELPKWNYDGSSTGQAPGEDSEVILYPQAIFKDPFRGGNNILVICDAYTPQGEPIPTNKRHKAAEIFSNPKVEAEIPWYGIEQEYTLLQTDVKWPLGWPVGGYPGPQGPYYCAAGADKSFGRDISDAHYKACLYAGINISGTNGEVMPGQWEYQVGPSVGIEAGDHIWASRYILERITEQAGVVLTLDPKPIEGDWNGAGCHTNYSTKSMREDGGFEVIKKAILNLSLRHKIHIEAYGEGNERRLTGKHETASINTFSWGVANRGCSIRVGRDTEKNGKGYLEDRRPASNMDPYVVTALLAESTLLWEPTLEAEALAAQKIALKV
# T4: M. truncatula GSII-1a (Medicago truncatula, UniProt O04998)
# T4 sequence (O04998 1-356): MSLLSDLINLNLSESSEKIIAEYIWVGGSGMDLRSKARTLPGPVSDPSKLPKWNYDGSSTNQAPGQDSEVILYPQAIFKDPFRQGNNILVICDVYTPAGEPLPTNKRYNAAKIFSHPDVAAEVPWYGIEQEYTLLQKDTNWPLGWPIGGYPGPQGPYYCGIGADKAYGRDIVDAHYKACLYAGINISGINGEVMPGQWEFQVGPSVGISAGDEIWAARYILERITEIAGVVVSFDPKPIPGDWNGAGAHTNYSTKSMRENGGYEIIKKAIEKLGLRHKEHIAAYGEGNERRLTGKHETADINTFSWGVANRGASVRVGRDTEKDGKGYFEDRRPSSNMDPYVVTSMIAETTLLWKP
# B1: Medicago truncatula cytosolic glutamine synthetase GSII-1a (enzyme, UniProt O04998 1-356, looked up)
# chain: T4 sequence (O04998 1-356)
# notes: Glutamine synthetase GSII-1a, cytosolic, Medicago truncatula, UniProt O04998; Apo form; also called MtGSII-1a; MtGSII1a; source: recombinant, N-terminally His-tagged; cloning and crystallisation described previously (Seabra et al., 2009); not shown: His tag, N-terminal, kept; copies: 10
# Assays:
# M. truncatula GSII-2b = target: T1, M. truncatula GSII-2b; experiment: GS synthetase reaction inhibition, GSII-2b; type: biochemical
# Description: (§1) The activities of the His-tagged GS isoenzymes (GSII-1a, GSII-1b, GSII-2a and GSII-2b) were determined by quantifying the γ-glutamyl hydroxamate produced by the synthetase reaction (GSs) as described previously (Cullimore & Sims, 1981[▶]; Cullimore et al., 1982[▶]). The reactions started by the addition of 10 µg purified His-tagged GS isoenzyme to the assay mixture (100 mM Tris buffer pH 7.8, 100 mM glutamate, 8 mM ATP, 8 mM hydroxylamine, 16 mM MgSO4) were allowed to proceed at 30°C for 15 min and were stopped by adding one volume of stop solution (0.37 M FeCl3, 0.67 M HCl, 0.2 M TCA). GS specific activity was determined as the amount of γ-glutamyl hydroxamate produced per minute per milligram of purified protein (µmol min^−1 mg^−1). GS inhibition was evaluated by adding increasing concentrations of either phosphinothricin (PPT; Fluka; 0, 0.005, 0.01, 0.05, 0.1, 0.5, 1, 1.5, 2.5, 5, 10 and 20 mM) or methionine-S-sulfoximine (MSO; Sigma; 0, 0.5, 1, 1.5, 2.5, 5, 10, 20, 40 and 60 mM) to the reaction mixture. GS inhibition assays were performed at two different glutamate concentrations (20 and 100 mM). IC50 was calculated by nonlinear regression using the LogIC50 equation of GraphPad Prism5 (GraphPad Software).
# M. truncatula GSII-1b = target: T2, M. truncatula GSII-1b; experiment: GS synthetase reaction inhibition, GSII-1b; type: biochemical
# Description: as §1
# M. truncatula GSII-2a = target: T3, M. truncatula GSII-2a; experiment: GS synthetase reaction inhibition, GSII-2a; type: biochemical
# Description: as §1
# M. truncatula GSII-1a = target: T4, M. truncatula GSII-1a; experiment: GS synthetase reaction inhibition, GSII-1a; type: biochemical
# Description: as §1
# plant GSII = tested on: plant GSII; design: method as in Evstigneeva et al., 2003; settings: plant GSII overall; ref Evstigneeva et al., 2003; cited from earlier work
# [1] = target: Medicago truncatula plastid-located glutamine synthetase GSII-2a (mature polypeptide) (Medicago truncatula); experiment: cryo-EM structure; purified GSII-2a 0.3 mg/ml vitrified; single-particle reconstruction with D5 symmetry applied, 3117 side-view particles with parallel rings, 20 Å
# [2] = target: Medicago truncatula plastid-located glutamine synthetase GSII-2a (mature polypeptide) (Medicago truncatula); experiment: native MS; nondenaturing conditions, ammonium acetate buffer pH 7.5, nano-electrospray, capillary voltage 1700 V, cone potential 50 V
# [3] = target: Medicago truncatula plastid-located glutamine synthetase GSII-2a (mature polypeptide) (Medicago truncatula); experiment: native MS; high activation conditions: collision energy increased from 100 to 200 V; ammonium acetate buffer pH 7.5; decamer to pentamers in the gas phase
# [4] = target: Medicago truncatula plastid-located glutamine synthetase GSII-2a (mature polypeptide) (Medicago truncatula); experiment: as above; remark: listed apart in the source
# [5] = target: the molecule itself; experiment: crystal structure; apo form, space group P2_(1), decamer in the asymmetric unit, 2.35 Å
# [6] = standard GS assay conditions (100 mM glutamate)
# [7] = MSO titration using 20 mM glutamate, His-tagged enzyme, read-out: IC50 (concentration of inhibitor reducing the GS activity by 50%)
molecule,measurement,setting,value
"CS(=N)(=O)CC[C@H](N)C(=O)O (some centres unmarked) [MSO, methionine-S-sulfoximine]",GS inhibition under the standard GS assay conditions,M. truncatula GSII-2b; [6],poorly inhibited
same,IC50,M. truncatula GSII-1b; [7],2.2 mM
same,GS inhibition under the standard GS assay conditions,M. truncatula GSII-1b; [6],poorly inhibited
same,IC50,M. truncatula GSII-2a; [7],3.6 mM
same,GS inhibition under the standard GS assay conditions,M. truncatula GSII-2a; [6],poorly inhibited
same,IC50,M. truncatula GSII-1a; [7],9.5 mM
same,GS inhibition under the standard GS assay conditions,M. truncatula GSII-1a; [6],poorly inhibited
"CP(=O)(O)CC[C@H](N)C(=O)O [PPT, phosphinothricin]",IC50,M. truncatula GSII-2b,720 µM
same,IC50,M. truncatula GSII-1b,0.67 mM
same,times more effectively inhibited by PPT than by MSO,plant GSII,5–10 times
same,IC50,M. truncatula GSII-2a,0.26 mM
same,IC50,M. truncatula GSII-1a,0.76 mM
Medicago truncatula plastid-located glutamine synthetase GSII-2a (mature polypeptide) (enzyme),stoichiometry N,[1],10
same,stoichiometry N,[2],10
same,stoichiometry N,[3],10
same,stoichiometry N,[4],5
B1,stoichiometry N,[5],10

# From paper PMC3975887, “The structures of cytosolic and plastid-located glutamine synthetases from Medicago truncatula reveal a common and dynamic architecture” (Acta Crystallographica Section D: Biological Crystallography, 2014)
